Test results published in patent US11396511B2, “Substituted 9,13b-dihydro-1H-dibenzo[c,f]imidazo[1,5-a]azepin-3-ylbenzamides as anti-inflammatory and analgesic agents” (FRONTBIO CO., LTD., priority 2017, dated 2022).
Where “and” joins values, the source holds several entries; their conditions need not be identical. Equal entries are not always repeated.

Tests used:
mice [1] = assay: Writhing test (1% acetic acid intraperitoneally); format: in vivo; details: for numbers of stretching and writhing movements: 30 min pretreatment
Procedure: In accordance with the most common method for measuring the analgesic efficacies of the test substances in the peripheral nerve based on abdominal contraction responses as indices, 1% acetic acid was administered intraperitoneally to mice to induce damage or pain of the abdominal peripheral vessels. After acetic acid administration, the behavioral profiles of the mice were observed and the numbers of stretching and writhing movements of the mice were counted to determine the analgesic efficacies of the test substances.
30 min after pretreatment with the compound 3 (E-S) at concentrations of 10, 20, 40, and 80 mg/kg, writhing test was conducted to assess the analgesic efficacy of the compound 3. As a result, the analgesic efficacy of the compound 3 was concentration-dependent (FIG. 4a and Table 4). The analgesic efficacy of the compound 4 (E-A) was assessed in the same manner as that of the compound 3.

mice [2] = assay: Hot-plate test; format: in vivo; details: for response time to the thermal stimulus (hot-plate): 30 min pretreatment, in s (unit assumed); for analgesic efficacy in hot-plate test (in words): 10, 20, 40, 80 mg/kg
Procedure: Hot-plate test was conducted using an electric heater to measure the analgesic activity of the test substances on the acute thermal stimulus. Experimental animals were injected with the test drugs and a vehicle (control) and were sequentially placed on an electric heater (hot-plate). The response time to the thermal stimulus ([…]) was defined as the time until the experimental animal licked their paws. Male mice weighing 22-25 g, aged 4-5 weeks, were used as the test animals (10 per group).
30 min after pretreatment with the compound 3 (E-S) at concentrations of 10, 20, 40, and 80 mg/kg, hot-plate test was conducted to assess the analgesic efficacy of the compound 3. […] The analgesic efficacy of the compound 4 (E-A) was assessed in the same manner as that of the compound 3.

[3] = system: streptozotocin-induced diabetic mice; assay: Von-frey test in diabetic neuropathy models; format: in vivo; design: threshold values (Von-frey test): unit not given here; details: for analgesic efficacy, Von-frey test (in words): oral 10, 20, 40, 80 mg/kg; for concentration of highest analgesic efficacy, Von-frey test: oral 10, 20, 40, 80 mg/kg tested
Procedure: 65 mg/kg of streptozotocin (Sigma Corp., USA) was dissolved at a concentration of 15 mg/ml in 0.1 M citrate buffer at pH 4.5 and the resulting solution was administered intraperitoneally to mice. Blood glucose levels were measured 1 week after administration and streptozotocin-induced diabetic mice were chosen.
(§1) After damage to the sciatic nerve, allodynia induced by the mechanical stimulus was measured. Mice were housed in acrylic chambers on a steel mesh floor and acclimated for ≥60 min before testing. Continuous responses were evaluated using Von-frey filaments by the up-down method. The filaments were brought into vertical contact with the affected left soles and the contact was maintained for 5-6 sec. The response was considered to be positive when the mouse rapidly avoided the stimulus, startled or licked its sole. The Von-frey filaments were first used to stimulate the mice.
The inhibitory effects of the test substances on pain were determined in diabetic neuropathy models. To this end, after oral administration of each test substance at concentrations of 10, 20, 40, and 80 mg/kg, threshold values were measured at different periods of time through Von-frey test.

[4] = system: anticancer drug-induced peripheral neuropathy models (vincristine); assay: Von-frey test in anticancer drug-induced peripheral neuropathy models; format: in vivo, mice; design: threshold values (Von-frey test): unit not given here
Description: Vincristine is an anticancer drug that is widely used to treat malignant tumors, including breast cancer, leukemia, lymphoma, and primary brain tumor. However, vincristine was reported to cause neurotoxicity in peripheral nervous fibers and sensory or motor neuropathy after use. The anticancer drug vincristine is known to cause predictable and consistent neurotoxicity in all patients, particularly patients treated with therapeutic doses. When a patient receives a dose of vincristine, paresthesia accompanied by pain is first observed in proportion to the dose. As neuropathy develops, axons are lost together with motor function. Vincristine is also known to induce hypersensitivity of C nerve fiber nociceptors in the peripheral nervous system. Neuropathy was induced by administration of vincristine. First, 0.05 mg/kg of vincristine was administered intraperitoneally. Thereafter, vincristine was administered intraperitoneally twice a week for 6 weeks (0.125 mg/kg each). Neuropathic pain began to appear at week 3 after administration and significant pain was reported at week 4. The degree of neuropathic pain was measured through the […] (Junzo et al., 2005).
as §1
The analgesic efficacies of the test substances were evaluated in anticancer drug-induced peripheral neuropathy models. To this end, after oral administration of each test substance at concentrations of 10, 20, 40, and 80 mg/kg, threshold values were measured at different periods of time through Von-frey test.

CC(=O)Oc1ccccc1C(=O)NC1=NCC2c3ccccc3Cc3ccccc3N12 (centres unmarked) [E-A, 2-((9,13b-dihydro-1H-dibenzo[c,f]imidazo[1,5-a]azepin-3-yl)carbamoyl)phenyl acetate]
numbers of stretching and writhing movements (mice [1]; 10 mg/kg): 8.25
numbers of stretching and writhing movements (mice [1]; 20 mg/kg): 13.75
numbers of stretching and writhing movements (mice [1]; 40 mg/kg): 11.25
numbers of stretching and writhing movements (mice [1]; 80 mg/kg): 12.25
concentration of best analgesic efficacy in writhing test (mice [1]; 10, 20, 40, 80 mg/kg tested): 10 mg/kg
response time to the thermal stimulus (hot-plate) (mice [2]; 10 mg/kg): 9.58
response time to the thermal stimulus (hot-plate) (mice [2]; 20 mg/kg): 14.98
response time to the thermal stimulus (hot-plate) (mice [2]; 40 mg/kg): 17.42
response time to the thermal stimulus (hot-plate) (mice [2]; 80 mg/kg): 18.30
analgesic efficacy in hot-plate test (in words) (mice [2]): observed in the 2nd phase
threshold values (Von-frey test) ([3]; oral 10 mg/kg, 1 h): 0.260
threshold values (Von-frey test) ([3]; oral 10 mg/kg, 2 h): 0.263
threshold values (Von-frey test) ([3]; oral 10 mg/kg, 3 h): 0.324
threshold values (Von-frey test) ([3]; oral 10 mg/kg, 4 h): 0.286
threshold values (Von-frey test) ([3]; oral 10 mg/kg, 5 h): 0.225
threshold values (Von-frey test) ([3]; oral 10 mg/kg, basal): 0.286
threshold values (Von-frey test) ([3]; oral 20 mg/kg, 1 h): 0.263
threshold values (Von-frey test) ([3]; oral 20 mg/kg, 2 h): 0.324
threshold values (Von-frey test) ([3]; oral 20 mg/kg, 3 h): 0.321
threshold values (Von-frey test) ([3]; oral 20 mg/kg, 4 h): 0.247
threshold values (Von-frey test) ([3]; oral 20 mg/kg, 5 h): 0.225
threshold values (Von-frey test) ([3]; oral 20 mg/kg, basal): 0.186
threshold values (Von-frey test) ([3]; oral 40 mg/kg, 1 h): 0.286
threshold values (Von-frey test) ([3]; oral 40 mg/kg, 2 h): 0.458
threshold values (Von-frey test) ([3]; oral 40 mg/kg, 3 h): 0.419
threshold values (Von-frey test) ([3]; oral 40 mg/kg, 4 h): 0.391
threshold values (Von-frey test) ([3]; oral 40 mg/kg, 5 h): 0.186
threshold values (Von-frey test) ([3]; oral 40 mg/kg, basal): 0.247
threshold values (Von-frey test) ([3]; oral 80 mg/kg, 1 h): 0.391
threshold values (Von-frey test) ([3]; oral 80 mg/kg, 2 h): 0.391
threshold values (Von-frey test) ([3]; oral 80 mg/kg, 3 h): 0.247
threshold values (Von-frey test) ([3]; oral 80 mg/kg, 4 h): 0.286
threshold values (Von-frey test) ([3]; oral 80 mg/kg, 5 h): 0.186
threshold values (Von-frey test) ([3]; oral 80 mg/kg, basal): 0.208
analgesic efficacy, Von-frey test (in words) [3]: concentration-dependent from 1 h after treatment and was maintained until 3 h after treatment
concentration of highest analgesic efficacy, Von-frey test [3]: 40 mg/kg and 80 mg/kg

O=C(NC1=NCC2c3ccccc3Cc3ccccc3N12)c1ccccc1O (centres unmarked) [E-S, N-(9,13b-dihydro-1H-dibenzo[c,f]imidazo[1,5-a]azepin-3-yl)-2-hydroxybenzamide]
numbers of stretching and writhing movements (mice [1]; 10 mg/kg): 33.75
numbers of stretching and writhing movements (mice [1]; 20 mg/kg): 29.75
numbers of stretching and writhing movements (mice [1]; 40 mg/kg): 23.75
numbers of stretching and writhing movements (mice [1]; 80 mg/kg): 12.75
analgesic efficacy in writhing test (in words) (mice [1]; 10, 20, 40, 80 mg/kg): concentration-dependent
response time to the thermal stimulus (hot-plate) (mice [2]; 10 mg/kg): 8.64
response time to the thermal stimulus (hot-plate) (mice [2]; 20 mg/kg): 13.34
response time to the thermal stimulus (hot-plate) (mice [2]; 40 mg/kg): 15.52
response time to the thermal stimulus (hot-plate) (mice [2]; 80 mg/kg): 19.30
analgesic efficacy in hot-plate test (in words) (mice [2]): significant at 40 and 80 mg/kg
threshold values (Von-frey test) ([3]; oral 10 mg/kg, 1 h): 0.247
threshold values (Von-frey test) ([3]; oral 10 mg/kg, 2 h): 0.208
threshold values (Von-frey test) ([3]; oral 10 mg/kg, 3 h): 0.363
threshold values (Von-frey test) ([3]; oral 10 mg/kg, 4 h): 0.330
threshold values (Von-frey test) ([3]; oral 10 mg/kg, 5 h): 0.286
threshold values (Von-frey test) ([3]; oral 10 mg/kg, basal): 0.247
threshold values (Von-frey test) ([3]; oral 20 mg/kg, 1 h): 0.286
threshold values (Von-frey test) ([3]; oral 20 mg/kg, 2 h): 0.208
threshold values (Von-frey test) ([3]; oral 20 mg/kg, 3 h): 0.314
threshold values (Von-frey test) ([3]; oral 20 mg/kg, 4 h): 0.186
threshold values (Von-frey test) ([3]; oral 20 mg/kg, 5 h): 0.324
threshold values (Von-frey test) ([3]; oral 20 mg/kg, basal): 0.208
threshold values (Von-frey test) ([3]; oral 40 mg/kg, 1 h): 0.314
threshold values (Von-frey test) ([3]; oral 40 mg/kg, 2 h): 0.391
threshold values (Von-frey test) ([3]; oral 40 mg/kg, 3 h): 0.352
threshold values (Von-frey test) ([3]; oral 40 mg/kg, 4 h): 0.314
threshold values (Von-frey test) ([3]; oral 40 mg/kg, 5 h): 0.391
threshold values (Von-frey test) ([3]; oral 40 mg/kg, basal): 0.225
threshold values (Von-frey test) ([3]; oral 80 mg/kg, 1 h): 0.613
threshold values (Von-frey test) ([3]; oral 80 mg/kg, 2 h): 0.574
threshold values (Von-frey test) ([3]; oral 80 mg/kg, 3 h): 0.391
threshold values (Von-frey test) ([3]; oral 80 mg/kg, 4 h): 0.419
threshold values (Von-frey test) ([3]; oral 80 mg/kg, 5 h): 0.225
threshold values (Von-frey test) ([3]; oral 80 mg/kg, basal): 0.164
analgesic efficacy, Von-frey test (in words) [3]: concentration-dependent until 1-2 h after treatment
concentration of highest analgesic efficacy, Von-frey test [3]: 80 mg/kg
concentration of highest analgesic efficacy, Von-frey test ([4]; 1 h after treatment, oral 10, 20, 40, 80 mg/kg tested): 80 mg/kg
threshold values (Von-frey test) ([4]; oral 10 mg/kg, 1 h): 0.110
threshold values (Von-frey test) ([4]; oral 10 mg/kg, 2 h): 0.163
threshold values (Von-frey test) ([4]; oral 10 mg/kg, 3 h): 0.180
threshold values (Von-frey test) ([4]; oral 10 mg/kg, 4 h): 0.145
threshold values (Von-frey test) ([4]; oral 10 mg/kg, 5 h): 0.135
threshold values (Von-frey test) ([4]; oral 10 mg/kg, basal): 0.113
threshold values (Von-frey test) ([4]; oral 20 mg/kg, 1 h): 0.173
threshold values (Von-frey test) ([4]; oral 20 mg/kg, 2 h): 0.208
threshold values (Von-frey test) ([4]; oral 20 mg/kg, 3 h): 0.191
threshold values (Von-frey test) ([4]; oral 20 mg/kg, 4 h): 0.137
threshold values (Von-frey test) ([4]; oral 20 mg/kg, 5 h): 0.194
threshold values (Von-frey test) ([4]; oral 20 mg/kg, basal): 0.157
threshold values (Von-frey test) ([4]; oral 40 mg/kg, 1 h): 0.324
threshold values (Von-frey test) ([4]; oral 40 mg/kg, 2 h): 0.306
threshold values (Von-frey test) ([4]; oral 40 mg/kg, 3 h): 0.270
threshold values (Von-frey test) ([4]; oral 40 mg/kg, 4 h): 0.239
threshold values (Von-frey test) ([4]; oral 40 mg/kg, 5 h): 0.194
threshold values (Von-frey test) ([4]; oral 40 mg/kg, basal): 0.173
threshold values (Von-frey test) ([4]; oral 80 mg/kg, 1 h): 0.408
threshold values (Von-frey test) ([4]; oral 80 mg/kg, 2 h): 0.385
threshold values (Von-frey test) ([4]; oral 80 mg/kg, 3 h): 0.390
threshold values (Von-frey test) ([4]; oral 80 mg/kg, 4 h): 0.239
threshold values (Von-frey test) ([4]; oral 80 mg/kg, 5 h): 0.242
threshold values (Von-frey test) ([4]; oral 80 mg/kg, basal): 0.176
analgesic efficacy, Von-frey test (in words) ([4]; oral 10, 20, 40, 80 mg/kg): concentration-dependent until 1 h after treatment and was maintained until 3 h after treatment
